Assay results published in patent US9775348B2, “Composition comprising a sesterterpene and use thereof as antibiotic and antifungal adjuvant” (RODE PHARMA S.R.L., priority 2012, dated 2017).

Key:
Type in all cases: cell-based
[1] = test system: Trichoderma viride, ATCC 28020; experiment: Fungal test, inhibition halo in Petri dish with central well; settings: tests with well, 25° C.
Experimental: (§1) A study about the efficacy of the composition of the present invention to some fungi was conducted. The compositions were tested according to the MIC method. The methodology being used is herein reported.
(§2) The tested fungi strains were as follows: i) Aspergillus niger, ATCC 16404; ii) Trichoderma viride, ATCC 28020; iii) Penicillium funiculosum ATCC 9644 and iv) Chaetomium globosum, ATCC 16021.
(§3) For each strain, time by time, a culture in liquid nutrient medium such as SABORAUD DEXEROSE AGAR was made.
(§4) Freshly-made subcultures were created, and incubated until obtaining an estimated density of […]. The estimate was obtained by spectrophotometric measurement of absorption at 530 nm.
(§5) Bacteriostatic tests: The tests were performed by placing fungal culture aliquots (set forth in the tables below) in Petri dishes with a central well (1 centimeter diameter) in which the product to be tested was poured. All the plates were incubated at 25° C. The incubation time for solutions A, B, C, D, E and F was 72 hours, while for products. M1, M2 and M3 the time was 30 hours.
(§6) The results are expressed as inhibition halo diameter being measured over each plate. […] Consequently, a 0 mm diameter denotes an undetectable halo. The described values indicate the average from the minimum and maximum values of halos for each test. Values are expressed in mm of inhibition.

[2] = test system: Aspergillus niger, ATCC 16404; experiment: as above; settings: tests with well, 25° C.
Experimental: as §1, §2, §3, §4, §5, §6

[3] = test system: Penicillium funiculosum ATCC 9644; experiment: as above; settings: tests with well, 25° C.
Experimental: as §1, §2, §3, §4, §5, §6

[4] = test system: Chaetomium globosum, ATCC 16021; experiment: as above; settings: tests with well, 25° C.
Experimental: as §1, §2, §3, §4, §5, §6

fungi = experiment: Fungal tests, overall conclusion versus fluconazole; settings: 0.07 mg versus 2 mg (about 1:28 ratio); alone or combined with each other
Experimental: as §1, §2, §5, §6

[5] = test system: Staphylococcus aureus ATCC 25923; experiment: Bacteriostatic test, inhibition halo in Petri dish with central well; settings: 2 cc of a 0.7% solution equal to 35 mg, diameter does not include the 10 mm central well
Experimental: (§7) A study about the efficacy of a gascardic acid-based composition referred to as M3 was conducted against some publicly available pathogenic bacteria such as (1) Staphylococcus aureus—ATCC 25923 (190×10^6 UFC/ml) (2) Pseudomonas aeruginosa—ATCC 15442 (305×10^6 UFC/ml) and (3) Escherichia coli—ATCC 25922 (300×10^6 UFC/ml). The composition M3 was tested according to MIC method.
(§8) The method was carried out as follows. Time by time, a culture of the above-mentioned strains was prepared in a Tryptic soy Agar type growth medium. Freshly-made subcultures were prepared, and incubated until obtaining an estimated density of 1×10^6 cells per ml of culture. The assessment was obtained by spectrophotometric measurement of absorption at known wavelengths.
(§9) The bacteriostatic tests were performed by placing the bacterial culture in Petri dishes with a central well of 1 cm diameter, containing the 2 cc aliquot of composition M3. Then, the freshly-made subculture was plated over the surrounding medium. Next, the Petri dishes were placed in a thermostatic environment at 30° C. and examined after 24 and 48 ore.
(§10) The results are expressed as inhibition halo diameter measured over each Petri dish. […] Consequently, a zero mm (0 mm) diameter denotes an undetectable halo. The given average values are obtained by considering the minimum and maximum value of each halo.
(§11) According to the above-described MIC method, a test where the pathogenic bacteria (1) Staphylococcus aureus ATCC 25923 (2) Pseudomonas aeruginosa ATCC 15442 and (3) Escherichia coli ATCC 25922 were tested along using composition M5 and composition M5+M3 was conducted.

[6] = test system: Escherichia coli ATCC 25922; experiment: as above; settings: 2 cc of a 0.7% solution equal to 35 mg, diameter does not include the 10 mm central well
Experimental: as §7, §8, §9, §10, §11

[7] = test system: Pseudomonas aeruginosa ATCC 15442; experiment: as above; settings: 2 cc of a 0.7% solution equal to 35 mg, diameter does not include the 10 mm central well
Experimental: as §7, §8, §9, §10, §11

[8] = incubation 72 hours, 1 cc per plate
[9] = incubation 30 hours, 1 cc (0.07 mg of compound)

Molecule | mm of inhibition (inhibition halo diameter) [1, 8] [mm] | mm of inhibition (inhibition halo diameter) [2, 8] [mm] | mm of inhibition (inhibition halo diameter) [3, 8] [mm] | mm of inhibition (inhibition halo diameter) [4, 8] | mm of inhibition (inhibition halo diameter) [1, 9] | mm of inhibition (inhibition halo diameter) [2, 9] | mm of inhibition (inhibition halo diameter) [3, 9] | mm of inhibition (inhibition halo diameter) [4, 9] | fungicidal activity compared with M4 (fluconazole) (fungi) | Halo in mm (inhibition halo diameter) [5] [mm] | Halo in mm (inhibition halo diameter) [6] [mm] | Halo in mm (inhibition halo diameter) [7] [mm]
OC(Cn1cncn1)(Cn1cncn1)c1ccc(F)cc1F [Test A, Fluconazole, reference compound] | 0 | 1 | 0 | 11-17 mm |  |  |  |  |  |  |  | 
C=C(C)[C@@H]1CC[C@]2(C(=O)O)CC[C@]3(C)[C@H](CC[C@@H]4[C@@]5(C)CC[C@H](O)C(C)(C)[C@@H]5CC[C@]43C)[C@@H]12 [Test M1, Betulinic acid] |  |  |  |  | 31-34 (*) mm | 15-16 mm | 12-18 (*) mm | 22-26 mm |  |  |  | 
C[C@H]1C(=O)CC[C@@H]2[C@]1(C)CC[C@H]1[C@@]2(C)CC[C@@]2(C)[C@@H]3CC(C)(C)CC[C@]3(C)CC[C@]12C [Test M2, Fridelin] |  |  |  |  | 2-6 mm | 3-4 mm | 1-1.5 mm | 5-11 (*) mm | strong fungicidal activity than M4 |  |  | 
Gascardic acid [Test M3] |  |  |  |  | 16-27 mm | 15-18 mm | 15-20 (*) mm | 19-26 mm | strong fungicidal activity than M4 | 8 | 6 | 6
